Source: patent US7601716B2, “Pyridopyrazines and derivatives thereof as ALK and c-Met inhibitors” (Cephalon, Inc., priority 2006, dated 2009)
Counter-ions that a name gives are not always drawn.

What was measured:
[1] = target: baculovirus-expressed ALK (Homo sapiens, UniProt Q9UM73); test: ALK Kinase Assay (ELISA/TRF, PLC-γ substrate); type: biochemical; details: read-out: ALK Kinase Inhibition (IC50); also: 1 µM ATP (Km level)
In short: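 IC50 values fitted by nonlinear sigmoidal regression (variable slope) of percent inhibition against log compound concentration. Read-out was TRF of Eu-N1 anti-phosphotyrosine antibody bound to phosphorylated, plate-coated GST-PLC-γ (10 µg/mL). Kinase reaction used ALK at 30 ng/ml for 15 min at 37 °C.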

[2] = target: T1, c-Met (cytoplasmic domain) (Homo sapiens, UniProt P08581); test: c-Met Kinase Assay (ELISA/TRF, PLC-γ substrate); type: biochemical; details: 3 μM ATP (Km level); read-out: c-Met Kinase Inhibition (IC50)
T1 construct: Reactions were initiated with 30 ng/mL c-Met (cytoplasmic domain, Invitrogen Corporation #PV3143); purchased Invitrogen Corporation PV3143
In short: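 Readout is TRF of europium anti-phosphotyrosine (PT66) bound to GST–PLC-γ substrate coated at 10 μg/mL, after a 15 min, 37 °C reaction started with 30 ng/mL c-Met cytoplasmic domain. Percent inhibition plotted against log compound concentration and fitted (variable slope) for IC50.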

Chain of baculovirus-expressed ALK (Q9UM73 19-1620): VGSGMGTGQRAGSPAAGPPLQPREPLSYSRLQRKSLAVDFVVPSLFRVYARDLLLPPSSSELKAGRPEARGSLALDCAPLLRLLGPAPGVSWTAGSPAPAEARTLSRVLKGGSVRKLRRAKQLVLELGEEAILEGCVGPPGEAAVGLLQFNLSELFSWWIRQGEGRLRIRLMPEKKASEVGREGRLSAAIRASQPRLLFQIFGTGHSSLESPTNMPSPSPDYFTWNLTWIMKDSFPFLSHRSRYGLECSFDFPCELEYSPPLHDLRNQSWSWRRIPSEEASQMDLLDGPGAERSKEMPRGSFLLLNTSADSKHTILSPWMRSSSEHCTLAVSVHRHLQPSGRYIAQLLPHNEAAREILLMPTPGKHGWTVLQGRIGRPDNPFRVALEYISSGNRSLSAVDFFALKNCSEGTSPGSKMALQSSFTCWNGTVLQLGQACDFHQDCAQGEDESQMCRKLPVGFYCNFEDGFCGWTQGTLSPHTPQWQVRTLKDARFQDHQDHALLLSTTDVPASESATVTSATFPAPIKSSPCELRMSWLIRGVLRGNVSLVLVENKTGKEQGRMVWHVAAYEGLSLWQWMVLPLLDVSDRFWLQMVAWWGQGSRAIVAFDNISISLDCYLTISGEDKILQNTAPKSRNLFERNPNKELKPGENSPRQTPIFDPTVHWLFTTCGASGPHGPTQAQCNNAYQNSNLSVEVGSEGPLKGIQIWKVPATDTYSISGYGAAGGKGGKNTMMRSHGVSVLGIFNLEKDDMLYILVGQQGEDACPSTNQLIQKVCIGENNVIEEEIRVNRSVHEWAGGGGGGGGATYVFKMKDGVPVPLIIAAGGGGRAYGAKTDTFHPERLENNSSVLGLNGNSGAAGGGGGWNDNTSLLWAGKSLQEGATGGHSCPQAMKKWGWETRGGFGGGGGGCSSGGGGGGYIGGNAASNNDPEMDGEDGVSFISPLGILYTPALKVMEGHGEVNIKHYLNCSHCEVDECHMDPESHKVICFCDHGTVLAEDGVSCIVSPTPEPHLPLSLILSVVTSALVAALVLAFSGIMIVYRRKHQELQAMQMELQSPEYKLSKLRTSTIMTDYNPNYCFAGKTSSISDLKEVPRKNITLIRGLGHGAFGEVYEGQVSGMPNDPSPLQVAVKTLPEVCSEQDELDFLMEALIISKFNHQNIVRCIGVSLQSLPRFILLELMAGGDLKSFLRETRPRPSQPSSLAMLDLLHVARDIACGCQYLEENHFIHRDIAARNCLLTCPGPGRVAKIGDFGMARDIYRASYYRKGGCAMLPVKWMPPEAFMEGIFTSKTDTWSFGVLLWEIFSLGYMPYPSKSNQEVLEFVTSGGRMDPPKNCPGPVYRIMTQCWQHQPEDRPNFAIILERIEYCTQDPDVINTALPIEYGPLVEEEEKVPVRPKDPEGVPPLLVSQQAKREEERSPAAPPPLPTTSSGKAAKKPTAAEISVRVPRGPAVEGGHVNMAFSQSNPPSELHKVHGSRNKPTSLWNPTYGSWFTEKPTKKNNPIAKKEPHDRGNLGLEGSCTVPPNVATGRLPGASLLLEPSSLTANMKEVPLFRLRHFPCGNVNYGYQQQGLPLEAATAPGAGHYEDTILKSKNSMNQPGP
T1 sequence (P08581 956-1390 limits assumed): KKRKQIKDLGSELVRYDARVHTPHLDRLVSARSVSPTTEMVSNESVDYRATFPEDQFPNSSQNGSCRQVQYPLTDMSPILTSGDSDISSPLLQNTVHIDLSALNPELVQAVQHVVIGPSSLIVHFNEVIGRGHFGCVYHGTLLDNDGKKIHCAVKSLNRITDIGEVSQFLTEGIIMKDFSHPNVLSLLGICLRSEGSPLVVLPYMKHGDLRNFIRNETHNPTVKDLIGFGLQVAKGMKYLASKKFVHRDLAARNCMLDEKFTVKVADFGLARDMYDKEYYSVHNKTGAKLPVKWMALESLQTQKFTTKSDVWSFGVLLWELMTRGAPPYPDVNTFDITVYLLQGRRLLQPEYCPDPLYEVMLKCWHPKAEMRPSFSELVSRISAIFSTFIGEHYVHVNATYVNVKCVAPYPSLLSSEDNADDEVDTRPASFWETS

Row | melting point | IC50 [1] [µM] | IC50 [2] [µM] | Compound
1 | 107 °C | – | – | O=C(NCCN1CCCC1)c1ccc(-c2cnc3c(c2)N(Cc2ccccc2)C(=O)CN3)cc1 (as salt: trifluoroacetic acid salt) [Example 12, 4-(1-Benzyl-2-oxo-1,2,3,4-tetrahydropyrido[2,3-b]pyrazin-7-yl)-N-(2-pyrrolidin-1-yl-ethyl)benzamide, trifluoroacetic acid salt]
2 | 147 °C | – | – | CN(C)CCCCNC(=O)c1ccc(-c2cnc3c(c2)N(Cc2c(Cl)cccc2Cl)C(=O)CN3)cc1 (as salt: trifluoroacetic acid salt) [Example 144, 4-[1-(2,6-Dichlorobenzyl)-2-oxo-1,2,3,4-tetrahydropyrido[2,3-b]pyrazin-7-yl]-N-(4-dimethylaminobutyl)benzamide, trifluoroacetic acid salt]
3 | – | 1 to 10 | > 100 | O=C(c1cnc2c(c1)N(Cc1cc(Cl)ccc1Cl)CCN2)N1CCN(CCc2ccccc2)CC1 [Example 260, [1-(2,5-Dichlorobenzyl)-1,2,3,4-tetrahydropyrido[2,3-b]pyrazin-7-yl]-(4-phenethyl-piperazin-1-yl)methanone]
4 | – | 0.1 to 1 | 1 to 10 | CN1CCN(c2ccc(-c3cnc4c(c3)N(Cc3cccc(F)c3C(F)(F)F)CCN4)cn2)CC1 [Example 181, 1-[3-Fluoro-2-(trifluoromethyl)benzyl]-7-[6-(4-methylpiperazin-1-yl)pyridin-3-yl]-1,2,3,4-tetrahydropyrido[2,3-b]pyrazine]
5 | – | 1 to 10 | > 100 | O=C(c1cnc2c(c1)N(Cc1cc(Cl)ccc1Cl)CCN2)N1CCCC1c1cccnc1 (stereo not drawn) [Example 264, [1-(2,5-Dichlorobenzyl)-1,2,3,4-tetrahydropyrido[2,3-b]pyrazin-7-yl]-(2-pyridin-3-yl-pyrrolidin-1-yl)methanone]
6 | – | 0.1 to 1 | 10 to 100 | FC(F)(F)c1ccc(Cl)cc1CN1CCNc2ncc(-c3cc[nH]c3)cc21 [Example 202, 1-[5-Chloro-2-(trifluoromethyl)benzyl]-7-(1H-pyrrol-3-yl)-1,2,3,4-tetrahydro-pyrido[2,3-b]pyrazine]
7 | – | 10 to 100 | 10 to 100 | O=C(c1cnc2c(c1)N(Cc1cc(Cl)ccc1Cl)CCN2)N1CCN(c2cccc(C(F)(F)F)c2)CC1 [Example 211, [1-(2,5-Dichlorobenzyl)-1,2,3,4-tetrahydropyrido[2,3-b]pyrazin-7-yl]-{4-[3-(trifluoromethyl)phenyl]piperazin-1-yl}methanone]
8 | – | 0.1 to 1 | 10 to 100 | CCOC(=O)c1ccc(-c2cnc3c(c2)N(Cc2ccccc2)C(=O)CN3)cn1 [Example 29, 5-(1-Benzyl-2-oxo-1,2,3,4-tetrahydropyrido[2,3-b]pyrazin-7-yl)pyridine-2-carboxylic acid ethyl ester]
9 | – | > 100 | 10 to 100 | O=C(Cc1ccccc1)N1CCNc2ncc(I)cc21 [Example 110, 1-(7-Iodo-3,4-dihydro-2H-pyrido[2,3-b]pyrazin-1-yl)-2-phenylethanone]
10 | – | 10 to 100 | 10 to 100 | CN1CCN(CCS(=O)(=O)Nc2ccc(-c3cnc4c(c3)N(C(=O)c3ccccc3)CCN4)cc2)CC1 [Example 47, 2-(4-Methylpiperazin-1-yl)-ethanesulfonic acid[4-(1-benzoyl-1,2,3,4-tetrahydropyrido[2,3-b]pyrazin-7-yl)phenyl]amide]
11 | – | 1 to 10 | 10 to 100 | O=C1CNc2ncc(-c3cccnc3)cc2N1Cc1c(F)ccc(F)c1Cl [Example 4, 1-(2-Chloro-3,6-difluorobenzyl)-7-pyridin-3-yl-3,4-dihydro-1H-pyrido[2,3-b]pyrazin-2-one, trifluoroacetic acid salt]
12 | – | > 100 | > 100 | CC(c1c(F)ccc(F)c1Cl)N1C(=O)CNc2ncc(I)cc21 (stereo not drawn) [Example 175, 1-[1-(2-Chloro-3,6-difluorophenyl)ethyl]-7-iodo-3,4-dihydro-1H-pyrido[2,3-b]pyrazin-2-one]
13 | – | > 100 | 10 to 100 | O=C(c1ccc(-c2cnc3c(c2)N(C(=O)Cc2ccccc2)CCN3)cc1)N1CCC(N2CCCC2)CC1 [Example 111, 2-Phenyl-1-{7-[4-(4-(pyrrolidin-1-yl)piperidine-1-carbonyl)phenyl]-3,4-dihydro-2H-pyrido[2,3-b]pyrazin-1-yl}-ethanone]
14 | – | 10 to 100 | 10 to 100 | O=C(c1cnc2c(c1)N(Cc1cc(Cl)ccc1Cl)CCN2)N1CCC(Cc2ccccc2)CC1 [Example 215, (4-Benzylpiperidin-1-yl)-[1-(2,5-dichlorobenzyl)-1,2,3,4-tetrahydropyrido[2,3-b]pyrazin-7-yl]methanone]
15 | – | 1 to 10 | 1 to 10 | O=C(c1cnc2c(c1)N(Cc1cc(Cl)ccc1Cl)CCN2)N1CCN(c2nccc3occc23)CC1 [Example 220, [1-(2,5-Dichlorobenzyl)-1,2,3,4-tetrahydropyrido[2,3-b]pyrazin-7-yl]-(4-furo[3,2-c]pyridin-4-yl-piperazin-1-yl)methanone]
16 | – | 0.1 to 1 | > 100 | O=C(c1cnc2c(c1)N(Cc1cc(Cl)ccc1Cl)CCN2)N1CCN(c2cnccn2)CC1 [Example 241, [1-(2,5-Dichlorobenzyl)-1,2,3,4-tetrahydropyrido[2,3-b]pyrazin-7-yl]-(2,3,5,6-tetrahydro-[1,2′]bipyrazinyl-4-yl)methanone]
17 | 150 °C | – | – | CN(C)CCCCCCNC(=O)c1ccc(-c2cnc3c(c2)N(Cc2c(Cl)cccc2Cl)C(=O)CN3)cc1 (as salt: trifluoroacetic acid salt) [Example 143, 4-[1-(2,6-Dichlorobenzyl)-2-oxo-1,2,3,4-tetrahydropyrido[2,3-b]pyrazin-7-yl]-N-(6-dimethylaminohexyl)benzamide, trifluoroacetic acid salt]
18 | 214 to 216 °C (dec.) | – | – | O=C1CN(Cc2c(F)ccc(F)c2Cl)c2cc(Br)cnc2N1 [Example 436, 7-Bromo-1-(2-chloro-3,6-difluorobenzyl)-1,4-dihydro-2H-pyrido[2,3-b]pyrazin-3-one]
19 | – | > 100 | > 100 | CC(c1cc(F)c(F)cc1F)N1CCNc2ncc(-c3ccc(C(=O)N4CCN(C)CC4)cc3)cc21 (stereo not drawn) [Example 149, (4-Methylpiperazin-1-yl)-(4-{1-[1-(2,4,5-trifluorophenyl)ethyl]-1,2,3,4-tetrahydropyrido[2,3-b]pyrazin-7-yl}phenyl)methanone]
20 | – | 10 to 100 | 10 to 100 | O=C(NCCOc1ccccc1)c1cnc2c(c1)N(Cc1cc(Cl)ccc1Cl)CCN2 [Example 251, 1-(2,5-Dichlorobenzyl)-1,2,3,4-tetrahydropyrido[2,3-b]pyrazine-7-carboxylic acid (2-phenoxyethyl)amide]
21 | – | > 100 | 10 to 100 | CC(c1cc(F)c(F)cc1F)N1C(=O)CNc2ncc(-c3ccc(C(=O)N4CCN(C)CC4)cc3)cc21 (stereo not drawn) [Example 146, 7-[4-(4-Methylpiperazine-1-carbonyl)phenyl]-1-[1-(2,4,5-trifluorophenyl)ethyl]-3,4-dihydro-1H-pyrido[2,3-b]pyrazin-2-one, trifluoroacetic acid salt]
22 | – | 1 to 10 | 10 to 100 | O=C(NCc1cccc(Cl)c1)c1cnc2c(c1)N(Cc1cc(Cl)ccc1Cl)CCN2 [Example 228, 1-(2,5-Dichlorobenzyl)-1,2,3,4-tetrahydropyrido[2,3-b]pyrazine-7-carboxylic acid 3-chlorobenzylamide]
23 | – | > 100 | > 100 | Fc1cccc(CN2CCNc3ncc(I)cc32)c1C(F)(F)F [Example 179, 1-[3-Fluoro-2-(trifluoromethyl)benzyl]-7-iodo-1,2,3,4-tetrahydropyrido[2,3-b]pyrazine]
24 | – | 1 to 10 | 1 to 10 | CN1CCN(c2cc(-c3cnc4c(c3)N(Cc3ccc(C(F)(F)F)o3)CCN4)ccn2)CC1 [Example 293, 7-[2-(4-Methylpiperazin-1-yl)pyridin-4-yl]-1-[5-(trifluoromethyl)furan-2-ylmethyl]-1,2,3,4-tetrahydropyrido[2,3-b]pyrazine]
25 | – | 1 to 10 | > 100 | O=C(c1cnc2c(c1)N(Cc1cc(Cl)ccc1Cl)CCN2)N1CCN(c2ccccc2Cl)CC1 [Example 261, [4-(2-Chlorophenyl)piperazin-1-yl]-[1-(2,5-dichlorobenzyl)-1,2,3,4-tetrahydropyrido[2,3-b]pyrazin-7-yl]methanone]
26 | – | 1 to 10 | > 100 | O=C(NCc1cc(C(F)(F)F)cc(C(F)(F)F)c1)c1cnc2c(c1)N(Cc1cc(Cl)ccc1Cl)CCN2 [Example 239, 1-(2,5-Dichlorobenzyl)-1,2,3,4-tetrahydropyrido[2,3-b]pyrazine-7-carboxylic acid 3,5-bis-(trifluoromethyl)benzylamide]
27 | – | 1 to 10 | 10 to 100 | O=C(NCc1cccnc1)c1cnc2c(c1)N(Cc1cc(Cl)ccc1Cl)CCN2 [Example 235, 1-(2,5-Dichlorobenzyl)-1,2,3,4-tetrahydropyrido[2,3-b]pyrazine-7-carboxylic acid (pyridin-3-ylmethyl)amide]
28 | – | 1 to 10 | 10 to 100 | O=C(c1ccc(-c2cnc3c(c2)N(C(=O)Cc2cc(F)ccc2F)CCN3)cc1)N1CCC(N2CCCC2)CC1 [Example 114, 2-(2,5-Difluorophenyl)-1-{7-[4-(4-(pyrrolidin-1-yl)piperidine-1-carbonyl)phenyl]-3,4-dihydro-2H-pyrido[2,3-b]pyrazin-1-yl}ethanone]
29 | – | 10 to 100 | > 100 | O=C(c1cnc2c(c1)N(Cc1cc(Cl)ccc1Cl)CCN2)N1CCN(c2ccccc2C(F)(F)F)CC1 [Example 257, [1-(2,5-Dichlorobenzyl)-1,2,3,4-tetrahydropyrido[2,3-b]pyrazin-7-yl]-[4-(2-(trifluoromethyl)phenyl)piperazin-1-yl]methanone]
